# Results published in a melting point compilation (Tetko et al.).
# Conditions: a range is the spread between reports
row,Compound,melting point
1,CCCCC(CC)COC(=O)c1ccccc1C(=O)OCC(CC)CCCC (stereo not given),-55 to -50 °C
2,C=C(C)C(C)C,-157 °C
3,N#Cc1ccc(I)cc1,125 to 126 °C
4,Cc1ccc(S(=O)(=O)Cl)cc1,68 to 71 °C
5,COc1cc(C(=O)O)ccc1O,212 to 214 °C
6,CCc1ccc(Br)cc1,-43.5 to -43 °C
7,Nc1cccc(O)c1,123 to 125 °C
8,N#Cc1ccc(-c2ccc(C#N)cc2)cc1,234 to 238 °C
9,CCc1nc(C)c[nH]1,47 to 50.5 °C
10,O=C1C=Cc2cccc3cccc1c23,154 °C
11,Cc1cc2ccccc2[nH]1,58 to 61 °C
12,Cc1cccc(Cl)c1,-48 to -47.8 °C
13,CCCCCCCI,-48.2 to -48 °C
14,COc1cc(O)ccc1O,89 to 90 °C
15,COc1ccc(C(=O)OC(=O)c2ccc(OC)cc2)cc1,94.5 to 97 °C
16,O=Cc1ccc(O)c(O)c1,153 to 155 °C
17,O=C(O)Cc1ccccc1Cl,95 to 96 °C
18,c1ccc(CNc2ncnc3nc[nH]c23)cc1,231 °C
19,CCCCCCCCCC,-30 to -29.7 °C
20,c1ccc(P(c2ccccc2)c2ccccc2)cc1,80 to 80.5 °C
21,Cc1cncc(C)c1,-9 to -6.6 °C
22,OC(COc1ccccc1)COc1ccccc1,81.5 to 82 °C

row,Compound,melting point
1,O=[N+]([O-])c1ccc(C(F)(F)F)cc1,39 to 40 °C
2,CCCOCC,-128 to -127 °C
3,O=C(c1ccccc1)c1cccc(Cl)c1,82 to 83 °C
4,CC/C=C/C(C)C,-142 °C
5,CCCCCCC(C)=O,-21 to -16 °C
6,C1CNCCNC1,41 to 43.5 °C
7,OC1c2ccccc2-c2ccccc21,154 to 156 °C
8,O=C(O)CSCc1ccccc1,61 to 62 °C
9,N#Cc1ccc(Cl)c([N+](=O)[O-])c1,99 to 100 °C
10,OCC(CO)(CO)COCC(CO)(CO)CO,217 to 221 °C
11,C=C(C)CCCC,-103 °C
12,C=C(C#N)C(=O)OCC,-22.5 to -22 °C
13,CC1=NNC(=O)C1,221 to 222 °C
14,Cc1ccc(C)n1-c1ccccc1,49.5 to 50 °C
15,Fc1ccccc1-c1ccccc1,73.5 to 74 °C
16,COP(=S)(OC)Oc1ccc(SC)c(C)c1,7 to 7.5 °C
17,O=S1(=O)CC=CC1,64.5 to 65 °C
18,C#CC(C)(C)C,-78.2 to -78 °C
19,FC(Br)(Br)Br,-74 to -73.6 °C
20,Brc1ccc(-c2ccccc2)cc1,90 to 91.5 °C
21,Oc1ccc(-c2ccc(O)cc2)cc1,278 to 283 °C
22,Oc1cccc(Cl)c1,32 to 34 °C

row,Compound,melting point
1,O=C(Cl)CCc1ccccc1,-7 to -2 °C
2,CCCCCCC=O,-43.3 to -43 °C
3,CCOc1ccccc1C(=O)O,20 to 20.7 °C
4,O=C1c2ccccc2C(=O)c2ccccc21,284 to 286 °C
5,NCc1ccncc1,-8 to -7.6 °C
6,CCOC(=O)c1ccc(OC)cc1,7 to 8 °C
7,CCC(Br)CC,-126 °C
8,O=C=Nc1ccc(Cl)c(Cl)c1,42 to 43 °C
9,Nc1ccc(Oc2ccccc2)cc1,83 to 84 °C
10,CCCCCCCCCCc1ccccc1,-14.4 to -14 °C
11,CC(=O)NN,64 to 67 °C
12,Cc1ccc(C(=O)c2ccccc2)cc1C,46 to 47.5 °C
13,O=C(O)c1ccc2c(c1)OCO2,229 to 233 °C
14,O=Cc1ccccc1C(=O)O,97 to 99 °C
15,c1ccc2cc3ccccc3cc2c1,215 to 218 °C
16,Nc1cccc(Cl)c1Cl,22 to 24 °C
17,COC(=O)CCC(=O)OC,19 to 19.5 °C
18,CC(C)(CO)CO,125 to 130 °C
19,NC(=O)CCl,118 to 121 °C
20,CCNC(=O)NCC,110 to 112 °C
21,O=C1C(O)=C(Cl)C(=O)C(O)=C1Cl,283 to 284 °C
22,CC(C)(C)O,25 to 26 °C

row,Compound,melting point
1,CCc1cccc(C)c1C,-50 to -49.5 °C
2,O=S(=O)(Cc1ccccc1)c1ccccc1,146 to 149 °C
3,Cc1ccc(-c2ccc(C)cc2)cc1,120 to 121 °C
4,CCCCCCCC(=O)O,15.8 to 17 °C
5,c1ccc(CN(Cc2ccccc2)c2ccccc2)cc1,69 to 70 °C
6,CC(=O)c1ccc(Cl)c(Cl)c1,73 to 76 °C
7,O=C(O)COc1ccccc1C(=O)O,189 to 191 °C
8,O=[N+]([O-])c1ccc(Cl)cc1,83.5 to 84 °C
9,O=[N+]([O-])c1c(O)cccc1O,82 to 83 °C
10,CC(N)(CO)CO,110 to 111 °C
11,CC(=O)Nc1ccc2c(c1)Cc1ccccc1-2,193 to 194 °C
12,c1cnc2c(c1)ccc1cccnc12,117 to 118 °C
13,c1ccc2c(c1)ccc1cc3c(ccc4ccccc43)cc12,266 to 270 °C
14,Oc1cccc(F)c1,10 to 13.7 °C
15,OCc1ccccc1I,91 to 92 °C
16,Cc1ncc([N+](=O)[O-])n1C,137 to 140 °C
17,Nc1cccc2ccc(O)cc12,206 to 208 °C
18,CC12CCC(=O)C=C1CCC1C2C(=O)CC2(C)C1CCC2(O)C(=O)CO (stereo not given),222 to 226 °C
19,Cc1cc2nc[nH]c2cc1C,204 to 206 °C
